# Results from US10780071B2, “Compositions, methods and/or devices for prevention and/or treatment of dry eye disorders” (Brien Holden Vision Institute Limited, priority 2012, dated 2020).
# Like-named read-outs stand apart in the source and are kept apart here.
# Assays:
# lipase [1] = assay: Lipase activity in culture supernatants, summary over the test strains; assay type: cell-based, S. aureus 020 & 134, and S. epidermidis 024 & 025
# Method: The bacterial strains S. aureus 020 & 134, […] of glycerol monolaurate ointment prior to assay of bacterial growth and lipase activity. After incubation for 24 h, bacterial growth was determined by measuring the optical density of cultures using a spectrophotometer at a wavelength of 660 nm. Lipase activity by test bacterial strains under various treatments were assessed by examining the lipase activity in bacterial culture supernatants with a QuantiChrom™ Lipase Assay Kit.
# S. aureus 020 = assay: Bacterial growth, optical density of cultures at 660 nm; assay type: cell-based; details: Staphylococcus aureus, 020, 24 h, read-out: Inhibition of Growth
# Method: (§1) The bacterial strains S. aureus 020 & 134, and S. epidermidis 024 & 025 were grown at 37° C. in TSB treated with 0, 6.25 or 12.5 μg/ml of glycerol monolaurate or lauric acid as well as in TSB extraction of glycerol monolaurate ointment prior to assay of bacterial growth and lipase activity. After incubation for 24 h, bacterial growth was determined by measuring the optical density of cultures using a spectrophotometer at a wavelength of 660 nm. Lipase activity by test bacterial strains under various treatments were assessed by examining the lipase activity in bacterial culture supernatants with a QuantiChrom™ Lipase Assay Kit.
# S. aureus 134 = assay: as above; assay type: cell-based; details: Staphylococcus aureus, TSB, 37° C., 24 h
# Method: as §1
# S. epidermidis 025 = assay: as above; assay type: cell-based; details: read-out: Inhibition of Growth
# Method: as §1
# S. epidermidis 024 = assay: as above; assay type: cell-based; details: read-out: Inhibition of Growth
# Method: as §1
# lipase [2] = assay: Lipase activity in bacterial culture supernatants (QuantiChrom Lipase Assay Kit); assay type: cell-based; details: TSB, 37° C., 24 h
# Method: as §1
# lipase [3] = assay: as above; assay type: cell-based; details: S. aureus 134, TSB, 37° C., 24 h
# Method: (§2) The bacterial strains S. aureus 020 & 134, and S. […] in TSB extraction of glycerol monolaurate ointment prior to assay of bacterial growth and lipase activity. After incubation for 24 h, bacterial growth was determined by measuring the optical density of cultures using a spectrophotometer at a wavelength of 660 nm. Lipase activity by test bacterial strains under various treatments were assessed by examining the lipase activity in bacterial culture supernatants with a QuantiChrom™ Lipase Assay Kit.
# [4] = system: S. aureus 020 & 134, and S. epidermidis 024 & 025; assay: Bacterial growth, summary over the test strains; assay type: cell-based; details: concentrations of Tables 1-4; 24 h
# Method: as §1
# lipase [5] = assay: Lipase activity in bacterial culture supernatants (QuantiChrom Lipase Assay Kit); assay type: cell-based; details: S. aureus 020, TSB, 37° C., 24 h
# Method: as §2, with “134,” for “134, and S.”
# [6] = glycerol monolaurate 12.5 μg/ml
# [7] = glycerol monolaurate 17.5 μg/ml
# [8] = Staphylococcus epidermidis, 025, 24 h
# [9] = Staphylococcus epidermidis, 024, 24 h
smiles,measurement,setting,value
CCCCCCCCCCCC(=O)OCC(O)CO (stereo not shown) [Glycerol monolaurate],inhibits lipase activity by approximately (range over Table 1),lipase [1]; all strains and concentrations of Table 1 (5-17.5 μg/ml),16-88%
same,inhibition at 5 µg/mL,S. aureus 020,1%
same,inhibition at 7.5 µg/mL,S. aureus 020,0%
same,inhibition at 10 µg/mL,S. aureus 020,4%
same,inhibition at 12.5 µg/mL,S. aureus 020,4%
same,inhibition at 15 µg/mL,S. aureus 020,2%
same,inhibition at 17.5 µg/mL,S. aureus 020,0%
same,inhibition at 10 µg/mL,S. aureus 134; glycerol monolaurate 10 μg/ml,0%
same,inhibition at 12.5 µg/mL,S. aureus 134; [6],0%
same,inhibition at 15 µg/mL,S. aureus 134; glycerol monolaurate 15 μg/ml,1%
same,inhibition at 17.5 µg/mL,S. aureus 134; [7],0%
same,inhibition at 6.25 µg/mL,S. epidermidis 025; [8],0%
same,inhibition at 12.5 µg/mL,S. epidermidis 025; [8],0%
same,inhibition at 6.25 µg/mL,S. epidermidis 024; [9],0%
same,inhibition at 12.5 µg/mL,S. epidermidis 024; [9],0%
same,Inhibition of Lipase activity,"lipase [2]; S. epidermidis 024, glycerol monolaurate 6.25 μg/ml",46%
same,Inhibition of Lipase activity,"lipase [2]; S. epidermidis 024, glycerol monolaurate 12.5 μg/ml",70%
same,Inhibition of Lipase activity,"lipase [2]; S. epidermidis 025, glycerol monolaurate 6.25 μg/ml",48%
same,Inhibition of Lipase activity,"lipase [2]; S. epidermidis 025, glycerol monolaurate 12.5 μg/ml",72%
same,Inhibition of Lipase activity,lipase [3]; glycerol monolaurate 10 μg/ml,25%
same,Inhibition of Lipase activity,lipase [3]; [6],38%
same,Inhibition of Lipase activity,lipase [3]; glycerol monolaurate 15 μg/ml,49%
same,Inhibition of Lipase activity,lipase [3]; [7],63%
same,effect on growth of the bacterial strains at the concentrations used,[4],do not substantially inhibit growth
same,Inhibition of Lipase activity,lipase [5]; glycerol monolaurate 5 μg/ml,16%
same,Inhibition of Lipase activity,lipase [5]; glycerol monolaurate 7.5 μg/ml,29%
same,Inhibition of Lipase activity,lipase [5]; glycerol monolaurate 10 μg/ml,50%
same,Inhibition of Lipase activity,lipase [5]; [6],63%
same,Inhibition of Lipase activity,lipase [5]; glycerol monolaurate 15 μg/ml,73%
same,Inhibition of Lipase activity,lipase [5]; [7],88%
CCCCCCCCCCCC(=O)O [Lauric acid],inhibits lipase activity by approximately (range over Table 2),"lipase [1]; S. epidermidis 024 and 025, 6.25 and 12.5 μg/ml (Table 2)",46-72%
same,inhibition at 6.25 µg/mL,"S. epidermidis 025; Staphylococcus epidermidis, S. epidermidis 025, lauric acid 6.25 μg/ml, TSB, 37° C., 24 h",0%
same,inhibition at 12.5 µg/mL,"S. epidermidis 025; Staphylococcus epidermidis, S. epidermidis 025, lauric acid 12.5 μg/ml, TSB, 37° C., 24 h",0%
same,inhibition at 6.25 µg/mL,"S. epidermidis 024; Staphylococcus epidermidis, S. epidermidis 024, lauric acid 6.25 μg/ml, TSB, 37° C., 24 h",0%
same,inhibition at 12.5 µg/mL,"S. epidermidis 024; Staphylococcus epidermidis, S. epidermidis 024, lauric acid 12.5 μg/ml, TSB, 37° C., 24 h",0%
same,Inhibition of Lipase activity,"lipase [2]; S. epidermidis 024, lauric acid 6.25 μg/ml",46%
same,Inhibition of Lipase activity,"lipase [2]; S. epidermidis 024, lauric acid 12.5 μg/ml",70%
same,Inhibition of Lipase activity,"lipase [2]; S. epidermidis 025, lauric acid 6.25 μg/ml",48%
same,Inhibition of Lipase activity,"lipase [2]; S. epidermidis 025, lauric acid 12.5 μg/ml",72%
same,effect on growth of the bacterial strains at the concentrations used,[4],do not substantially inhibit growth
